Data from patent US6565895B2, “Bismuth compounds for the treatment and prevention of mucositis” (GelTex Pharmaceuticals, Inc., priority 2000, dated 2003).

Tested on: oral mucositis in a hamster model following irradiation
Assay: Hamster model of radiation-induced oral mucositis (mucositis score)
Format: in vivo, Golden Syrian hamsters
[1] = solution containing 17.5 mg/ml, 0.5 ml into left cheek pouch three times per day, Day 0 to Day 19, single radiation dose 35-38 Gy
[2] = solution containing 3.5 mg/ml, 0.5 ml into left cheek pouch three times per day, Day 0 to Day 19, single radiation dose 35-38 Gy

Excerpt: Briefly, male Golden Syrian hamsters (Charles River Laboratories), aged 5 to 6 weeks, with body weights of approximately 90 g at project commencement, were used. Animals were individually numbered using an ear punch and housed in small groups of approximately 6 animals per cage. Animals were acclimatized for at least one week prior to project commencement. During this period, the animals were observed daily in order to reject animals that presented in poor condition. Animals were fed with a standard hamster chow and water ad libitum.
Mucositis was induced using an acute radiation protocol. A single dose of radiation (35-38 Gy/dose) was administered to all animals on Day 0. Radiation was generated with a 250 kilovolt potential (15 mA) source at a focal distance of 50 cm, hardened with a 0.35 mm Cu filtration system. […] Prior to irradiation, animals were anesthetized with an intraperitoneal injection of sodium pentobarbital (80 mg/kg). The left buccal pouch was everted, fixed and isolated using a lead shield.
All animals were dosed with test material three times per day. A needleless tuberculin syringe containing 0.5 ml of the test compound was inserted into the left cheek pouch and the drug deposited into the pouch. Dosing began on Day 0 and continued until Day 19.
The mucositis score, weight change and survival were measured as outcomes in this study. For the evaluation of mucositis, the animals were anesthetized with inhalation anesthetics, and the left pouch everted. Mucositis was scored visually by comparison to a validated photographic scale, ranging from 0 for normal to 5 for severe ulceration (clinical scoring). In descriptive terms, this scale is defined as follows:
A score of 1-2 is considered to represent a mild stage of the disease, whereas a score of 3-5 is considered to indicate moderate to severe mucositis. Following visual scoring, a photograph was taken of each animal's mucosa using a standardized technique. At the conclusion of the experiment, all films were developed and the photographs randomly numbered. At least two independent trained observers graded the photographs in blinded fashion using the above-described scale (blinded scoring).

Compound | improvement in mucositis scores (time with score of three or higher) [1] | improvement in mucositis scores (time with score of three or higher) [2] | also measured
O=C([O-])[O-].[Bi+3].[Bi+3].[O-2].[O-2] [bismuth subcarbonate] | did not show a statistically significant improvement |  | 
O=C([O-])CC(O)(CC(=O)[O-])C(=O)[O-].[Bi+3] [bismuth citrate] |  | showed improvement in their mucositis scores | 
Bismuth Ascorbate |  |  | improvement in mucositis scores (time with score of three or higher) (solution containing 1.75 mg/ml, 0.5 ml into left cheek pouch three times per day, Day 0 to Day 19, single radiation dose 35-38 Gy): showed improvement in their mucositis scores
O=C([O-])[C@H]([O-])[C@@H]([O-])C(=O)[O-].[Bi+3].[K+] [bismuth potassium tartrate] | did not show a statistically significant improvement |  | 
O=C([O-])c1ccccc1[O-].[Bi+3].[OH-] [bismuth salicylate basic] |  | showed improvement in their mucositis scores | 
O=C([O-])c1ccccc1.O=C([O-])c1ccccc1.O=C([O-])c1ccccc1.[Bi+3] [bismuth benzoate, Bismuth Benzoate] |  | showed improvement in their mucositis scores | 
O=[N+]([O-])[O-].O=[N+]([O-])[O-].O=[N+]([O-])[O-].O=[N+]([O-])[O-].[Bi+3].[Bi+3].[Bi+3].[Bi+3].[Bi+3].[O-2].[OH-].[OH-].[OH-].[OH-].[OH-].[OH-].[OH-].[OH-].[OH-] [bismuth subnitrate] | did not show a statistically significant improvement |  | 
bismuth (III) oxide | did not show a statistically significant improvement |  | 
N[C@@H](CCC(=O)N[C@@H](CS)C(=O)NCC(=O)O)C(=O)O.[Bi] [bismuth glutathione, Bismuth Glutathione] |  |  | improvement in mucositis scores (time with score of three or higher) (hamster, in vivo): showed improvement in their mucositis scores
bismuth subgallate | did not show a statistically significant improvement |  | 
